A short description of series [1]: Drug level in brain of Sprague-Dawley rat at 10 mg/kg, po administered as single dose via gavage measured at 32 hrs by LC-MS/MS analysis. The format is ADME, organism-based. The settings on record: read-out: Drug uptake.
For series [2], the target named is T1, Fatty-acid amide hydrolase 1 (Homo sapiens, UniProt O00519).
T1 sequence (O00519 whole entry): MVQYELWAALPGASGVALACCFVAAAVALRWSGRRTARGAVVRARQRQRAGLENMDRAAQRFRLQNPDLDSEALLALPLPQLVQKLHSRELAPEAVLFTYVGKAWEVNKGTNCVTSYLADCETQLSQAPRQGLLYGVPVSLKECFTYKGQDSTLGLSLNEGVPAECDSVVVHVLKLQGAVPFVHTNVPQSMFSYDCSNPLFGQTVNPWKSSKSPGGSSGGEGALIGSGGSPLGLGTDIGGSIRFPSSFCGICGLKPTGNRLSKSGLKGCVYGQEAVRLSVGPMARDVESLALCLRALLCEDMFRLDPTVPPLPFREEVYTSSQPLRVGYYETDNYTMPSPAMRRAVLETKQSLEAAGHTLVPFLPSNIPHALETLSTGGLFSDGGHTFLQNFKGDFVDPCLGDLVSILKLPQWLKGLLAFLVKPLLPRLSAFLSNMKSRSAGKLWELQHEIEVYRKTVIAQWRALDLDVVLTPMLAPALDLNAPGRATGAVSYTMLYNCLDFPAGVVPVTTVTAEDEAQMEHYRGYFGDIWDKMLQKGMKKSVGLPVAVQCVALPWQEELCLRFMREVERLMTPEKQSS
Kind of series: Inhibition of human transmembrane domain deficient FFAH expressed in Escherichia coli using AAMCA as substrate incubated for 1 min measured for 50 mins by fluorescence assay.

A short description of series [3]: AUC (0 to 48 hrs) in brain of Sprague-Dawley rat at 10 mg/kg, po administered as single dose via gavage by LC-MS/MS analysis. The format is ADME, organism-based. Set-up: dose 10 mg/kg, time < 48 hr, route oral.
Series [4] can be described thus: Oral bioavailability in Sprague-Dawley rat at 10 mg/kg administered as single dose via gavage by LC-MS/MS analysis. Particulars: in vivo. The class given is ADME, organism-based.
In another series the target is Cytochrome P450 3A4 (Homo sapiens, UniProt P08684). Kind of series: Inhibition of CYP3A4 in human liver microsomes using testosterone as substrate preincubated for 5 mins followed by NADPH cofactor addition and measured after 10 mins by LC-MS/MS analysis. The format is ADME. For orientation: Liver microsomes are a subcellular fraction often used to study metabolism.

Series [5] in a line: Drug level in plasma of Sprague-Dawley rat at 10 mg/kg, po administered as single dose via gavage measured at 48 hrs by LC-MS/MS analysis. The format is ADME, organism-based.
Series [6] is described as follows: Drug level in brain of Sprague-Dawley rat at 10 mg/kg, po administered as single dose via gavage measured at 48 hrs by LC-MS/MS analysis. The class given is ADME, organism-based. Particulars: read-out: Drug uptake.
A short description of series [7]: Clearance in Sprague-Dawley rat at 3 mg/kg, iv administered as single dose by LC-MS/MS analysis. Particulars: in vivo. The format is ADME, organism-based.
The nature of series [8]: Drug level in brain of Sprague-Dawley rat at 10 mg/kg, po administered as single dose via gavage measured at 24 hrs by LC-MS/MS analysis. The settings on record: read-out: Drug uptake. The format is ADME, organism-based.
Series [9] is described as follows: Drug level in brain of Sprague-Dawley rat at 10 mg/kg, po administered as single dose via gavage measured at 4 hrs by LC-MS/MS analysis. The format is ADME, organism-based. Particulars: read-out: Drug uptake.
Series [10] deals with T2, Fatty-acid amide hydrolase 1 (Rattus norvegicus, UniProt P97612).
T2 sequence (P97612 whole entry): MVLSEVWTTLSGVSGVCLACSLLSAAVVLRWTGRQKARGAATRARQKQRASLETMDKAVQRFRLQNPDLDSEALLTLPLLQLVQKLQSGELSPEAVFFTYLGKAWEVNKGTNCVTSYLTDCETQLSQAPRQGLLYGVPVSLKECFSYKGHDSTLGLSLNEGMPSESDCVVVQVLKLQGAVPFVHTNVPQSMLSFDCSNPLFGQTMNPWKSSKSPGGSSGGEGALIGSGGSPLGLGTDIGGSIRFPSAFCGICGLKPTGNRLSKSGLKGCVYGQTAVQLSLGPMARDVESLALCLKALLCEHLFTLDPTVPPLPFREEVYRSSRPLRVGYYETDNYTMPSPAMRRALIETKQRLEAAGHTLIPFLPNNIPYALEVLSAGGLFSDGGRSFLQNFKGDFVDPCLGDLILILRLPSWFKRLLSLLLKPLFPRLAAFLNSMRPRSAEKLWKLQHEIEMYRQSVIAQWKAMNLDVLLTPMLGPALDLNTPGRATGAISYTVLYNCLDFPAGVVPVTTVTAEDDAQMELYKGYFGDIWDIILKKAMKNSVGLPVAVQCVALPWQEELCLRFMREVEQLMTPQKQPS
Kind of series: Inhibition of rat FFAH expressed in Escherichia coli using AAMCA as substrate incubated for 1 min measured for 50 mins by fluorescence assay.

Series [11] can be described thus: Drug level in plasma of Sprague-Dawley rat at 10 mg/kg, po administered as single dose via gavage measured at 24 hrs by LC-MS/MS analysis. The format is ADME, organism-based.
Series [12] in a line: AUC (0 to 48 hrs) in plasma of Sprague-Dawley rat at 10 mg/kg, po administered as single dose via gavage by LC-MS/MS analysis. The format is ADME, organism-based. More on the design: time < 48 hr, dose 10 mg/kg, route oral.
Series [13] is described as follows: Ratio of drug level in brain to plasma in Sprague-Dawley rat at 3 mg/kg, iv or 10 mg/kg, po administered as single dose via gavage by LC-MS/MS analysis. The format is ADME, organism-based. Particulars: brain and plasma, read-out: BPR.
The test system of series [14] is CYP3A4. Kind of series: Selectivity ratio of IC50 for CYP3A4 in human liver microsomes using testosterone as substrate to IC50 for human transmembrane domain deficient FFAH expressed in Escherichia coli. The format is toxicity. Particulars: probe testosterone, read-out: Ratio IC50.
The subject of the next series is CYP2C19. Kind of series: Selectivity ratio of IC50 for CYP2C19 in human liver microsomes to IC50 for rat FFAH expressed in Escherichia coli. The settings on record: read-out: Ratio IC50. The class given is toxicity.
Another series relates to CYP1A2. Kind of series: Selectivity ratio of IC50 for CYP1A2 in human liver microsomes to IC50 for human transmembrane domain deficient FFAH expressed in Escherichia coli. Particulars: read-out: Ratio IC50. The format is toxicity.
For series [15], the system named is CYP3A4. Kind of series: Selectivity ratio of IC50 for CYP3A4 in human liver microsomes using testosterone as substrate to IC50 for rat FFAH expressed in Escherichia coli. The format is toxicity. The settings on record: probe testosterone, read-out: Ratio IC50.
The nature of series [16]: Selectivity ratio of IC50 for MAGL (unknown origin) to IC50 for human transmembrane domain deficient FFAH expressed in Escherichia coli. The format is toxicity.
Series [17] in a line: Drug uptake in Sprague-Dawley rat brain at 3 mg/kg, iv or 10 mg/kg, po administered as single dose via gavage by LC-MS/MS analysis. The format is ADME, organism-based. Particulars: in vivo.
Series [18] in a line: Selectivity ratio of IC50 for MAGL (unknown origin) to IC50 for rat FFAH expressed in Escherichia coli. The class given is toxicity.

Sequence of Cytochrome P450 3A4 (P08684 whole entry): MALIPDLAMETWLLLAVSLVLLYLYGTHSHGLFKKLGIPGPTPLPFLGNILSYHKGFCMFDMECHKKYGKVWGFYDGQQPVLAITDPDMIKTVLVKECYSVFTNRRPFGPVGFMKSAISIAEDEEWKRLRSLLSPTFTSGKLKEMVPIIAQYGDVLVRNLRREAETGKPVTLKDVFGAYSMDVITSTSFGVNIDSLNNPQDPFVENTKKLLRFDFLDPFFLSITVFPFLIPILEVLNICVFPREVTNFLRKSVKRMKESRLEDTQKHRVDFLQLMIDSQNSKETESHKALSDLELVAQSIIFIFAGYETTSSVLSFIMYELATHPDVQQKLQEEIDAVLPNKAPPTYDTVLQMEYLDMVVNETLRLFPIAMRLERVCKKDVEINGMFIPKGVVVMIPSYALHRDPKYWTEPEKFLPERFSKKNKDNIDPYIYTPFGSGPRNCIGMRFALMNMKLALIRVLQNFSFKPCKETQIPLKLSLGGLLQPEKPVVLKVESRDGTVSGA

As a reminder, the IC50 is the midpoint of a concentration-inhibition curve. High values mean weaker potency, low ones greater potency. A word on the AUC(0-t): it is the area under the concentration-time curve up to a stated or last time point. Low readings indicate low exposure, high ones high exposure. As a reminder, the bioavailability is the share of a dose that reaches the circulation, judged against a reference dose that is usually intravenous. What is called clearance is the volume of plasma or blood freed of the substance per unit of time. On to `Nc1ccc(C(=O)N[C@H]2CC/C(=C\c3cccc(Oc4ccc(C(F)(F)F)cn4)c3)CC2)cn1` (stereo unspecified), for which the concentration at 32 h in [1] is 1900 nM. For the same compound, the IC50 is 1.2 nM in series [2], more than 12500 nM against Cytochrome P450 3A4 and 11.6 nM in series [10]. The AUC(0-t) at 48 h in series [3] was 135 µM·h; in series [12] it was 212 µM·h. For the same compound, the bioavailability in series [4] came out at 42%. Further, the concentration at 48 h in series [5] is 1000 nM; in series [6], 700 nM. Moreover, the clearance in [7] was found to be 0.7 mL/min/kg. The concentration at 24 h in series [8] is 2500 nM; in series [11] it was 4400 nM. Also, the concentration at 4 h in series [9] was determined as 4500 nM. Also, the Kp in [13] amounted to 0.6.
Consider `Nc1ncc(C(=O)N[C@H]2CC/C(=C\c3cccc(Oc4ccc(C(F)(F)F)cn4)c3)CC2)cn1` (stereo unspecified), for which the concentration at 32 h in series [1] is 2300 nM. Also, the IC50 in series [2] was 0.6 nM; on Cytochrome P450 3A4, more than 12500 nM; in [10], 6.2 nM. Further, the selectivity ratio in the series with CYP3A4 [14], with CYP2C19, with CYP1A2 and in the series on CYP3A4 [15] was more than 5000 in each case. Moreover, the AUC(0-t) at 48 h stood at 192 µM·h in series [3] and 237 µM·h in series [12]. In addition, in series [4], the bioavailability came out at 46%. Besides, the concentration at 48 h is 1300 nM in series [5] and 1100 nM in series [6]. The “Ratio IC50” value in [16] and in series [18] was more than 10000 in each case. In series [17], this compound showed a Drug uptake of 50 to 80%. This compound also registered a clearance in series [7] of 0.6 mL/min/kg. The concentration at 24 h in series [8] was determined as 4400 nM; in [11] it was 7000 nM. Besides, the concentration at 4 h in series [9] came out at 6300 nM. For the same compound, the Kp in series [13] came out at 0.8.
Take `Cc1cc(C(=O)N[C@H]2CC/C(=C\c3cccc(Oc4ccc(C(F)(F)F)cn4)c3)CC2)cnc1N` (stereo unspecified): the concentration at 32 h in [1] worked out at 1200 nM. For the same compound, the figures for the IC50 (in series [2]; on Cytochrome P450 3A4; in series [10]) were 1.3 nM, more than 12500 nM and 9.2 nM, respectively. Also, the selectivity ratio with CYP3A4 [14], in the series on CYP2C19, in the series with CYP1A2 and in the series with CYP3A4 [15] was more than 5000 each time. The figures for the AUC(0-t) at 48 h in series [3] and in [12] were 80.1 µM·h and 166 µM·h, respectively. The bioavailability in series [4] came to 46%. Besides, the concentration at 48 h in [5] stood at 1100 nM; in series [6], 600 nM. For the same compound, the “Ratio IC50” value in [16] and in series [18] was more than 10000 each time. In series [17], this compound gave a Drug uptake of 50 to 80%. For the same compound, the clearance in series [7] amounted to 0.8 mL/min/kg. Moreover, the figures for the concentration at 24 h in series [8] and in series [11] were 1300 nM and 3300 nM, respectively. The concentration at 4 h in [9] turned out to be 3100 nM. Also, the Kp in series [13] turned out to be 0.5.
Consider `O=C(N[C@H]1CC/C(=C\c2cccc(Oc3ccc(C(F)(F)F)cn3)c2)CC1)c1cccnc1` (stereo unspecified), for which the IC50 amounted to 0.7 nM in series [2] and 400 nM at Cytochrome P450 3A4. Also, the AUC(0-t) at 48 h amounted to 84 µM·h in [3] and 55 µM·h in series [12]. The bioavailability in series [4] is 35%. This compound registered a clearance in series [7] of 2.4 mL/min/kg. Moreover, the concentration at 24 h amounted to 1100 nM in series [8] and 500 nM in [11]. Besides, the concentration at 4 h in [9] came out at 6000 nM. In addition, the Kp in series [13] came to 1.5.

The values are drawn from ChEMBL document CHEMBL4371025, “Discovery and evaluation of novel FAAH inhibitors in neuropathic pain model” (Bioorg Med Chem Lett, 2019).
